Legend:
[1] = system: sickle cell disease model; details: SCD mice; cited from earlier work
blood S1P levels [2] = details: rats dosed with 10 mg/kg; cited from earlier work
human SphK1 = details: read-out: human SphK1 Ki; cited from earlier work
mouse SphK2 = details: read-out: mouse SphK2 Ki; cited from earlier work
blood S1P concentration = details: treatment in mice; cited from earlier work
blood S1P levels [3] = experiment: Blood S1P levels in mice after i.p. dose; format: in vivo; details: single 10 mg/kg i.p., C57BL/6 male mice
[4] = Blood concentration of compound in mice after i.p. dose; format: in vivo; details: single 10 mg/kg i.p., C57BL/6 male mice, LC-MS/MS

## Cc1cc(CS(=O)(=O)c2ccccc2)cc(OCc2ccc(CN3CCC[C@@H]3CO)cc2)c1 [Compound 3a]
[1]
  blood and plasma S1P levels: reduced
  erythrocyte sickling: decreased

## CCCCCCCCc1ccc(-c2noc(C[C@@H]3CCCN3C(=N)N)n2)cc1 [Compound 4]
Blood S1P levels [2]
  decrease of blood S1P levels: about 80%

## Cc1ccc(S(=O)(=O)Nc2ccccc2/C=N/c2ccccc2NS(=O)(=O)c2ccc(C)cc2)cc1 [Compound 5]
Human SphK1
  Ki: 27 ± 3 µM

## CCCCCCCCc1ccc(-c2noc([C@@H]3CCCN3C(=N)N)n2)cc1 [Compound 7]
Mouse SphK2
  Ki: 1.3 µM

## CCCCCCCCOc1ccc(-c2noc([C@@H]3CCCN3C(=N)N)n2)cc1C(F)(F)F.Cl [Compound 8]
Blood S1P concentration
  blood S1P concentration: increase in blood S1P concentration

## Cl.N=C(N)N1CCC[C@H]1c1nc(-c2ccc(OCc3ccc(C(F)(F)F)cc3)c(C(F)(F)F)c2)no1 [Compound 10, (S)-2-(3-(3-(trifluoromethyl)-4-((4-(trifluoromethyl)benzyl)oxy)phenyl)-1,2,4-oxadiazol-5-yl)pyrrolidine-1-carboximidamide]
Blood S1P levels [3]
  time blood S1P levels remained elevated: up to 6 hours
Blood S1P levels [3]; after 4 hours
  increase of blood S1P levels: nearly two-fold
[4]
  peak level of compound in blood: ~ 8 μM
